In PubChem BioAssay (NCI):
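Protocol summary: plate cells (96-well), add compound at 5 concentrations, incubate 48 h, interpolate endpoints linearly. TGI: concentration producing complete growth inhibition.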

Legend:
Assay in all cases: inhibition of tumour cell growth, NCI panel, 48 h
[1] = test system: DU-145 prostate
[2] = test system: OVCAR-3 ovarian
[3] = test system: IGROV1 ovarian
[4] = test system: SNB-75 CNS
[5] = test system: HCT-116 colon
[6] = test system: K-562 leukemia
[7] = test system: CCRF-CEM leukemia
[8] = test system: A549 NSCLC
[9] = test system: SF-539 CNS
[10] = test system: NCI-H23 lung
[11] = test system: MDA-MB-231 breast
[12] = test system: OVCAR-4 ovarian
[13] = test system: SK-MEL-5 melanoma
[14] = test system: SK-OV-3 ovarian
[15] = test system: RPMI-8226 leukemia
[16] = test system: SK-MEL-2 melanoma
[17] = test system: OVCAR-5 ovarian
[18] = test system: MDA-N
[19] = test system: 786-0 renal
[20] = test system: NCI-H226 lung

| SMILES | TGI [1] [µM] | TGI [2] [µM] | TGI [3] [µM] | TGI [4] [µM] | TGI [5] [µM] | TGI [6] [µM] | TGI [7] [µM] | TGI [8] [µM] | TGI [9] [µM] | TGI [10] [µM] | TGI [11] [µM] | TGI [12] [µM] | TGI [13] [µM] | TGI [14] [µM] | TGI [15] [µM] | TGI [16] [µM] | TGI [17] [µM] | TGI [18] [µM] | TGI [19] [µM] | TGI [20] [µM] |
| --- | --- | --- | --- | --- | --- | --- | --- | --- | --- | --- | --- | --- | --- | --- | --- | --- | --- | --- | --- | --- |
| O=C(O)CC(NC(=O)/C(=C/c1ccccc1)NC(=O)c1ccccc1)C(=O)O (configuration not stated) | > 100 | > 100 | > 100 | > 100 | > 100 | > 100 | > 100 | > 100 | > 100 | > 100 | > 100 | > 100 | > 100 | > 100 | > 100 | > 100 | > 100 | > 100 | > 100 | > 100 |
| O=C1CSC(c2ccccc2)N1c1ccc(-n2c(-c3ccccc3)nc3ccccc3c2=O)cc1 (configuration not stated) | > 100 | > 100 | > 100 | > 100 | > 100 | > 100 | > 100 | > 100 | > 100 | > 100 | > 100 | > 100 | > 100 | > 100 | > 100 | > 100 | > 100 | > 100 | > 100 | > 100 |
| C/C=C/C=C\C=C/C(O)C(C)C(CCC(C)C1OC(=O)C=CC1C)OP(=O)(O)O (configuration not stated) | 1.76 | 0.393 | 0.694 | 2.85 | 0.717 | 0.905 | 0.625 | 3.83 | 1.7 | 4.83 | > 71.1 | 2.86 | 1.84 | 1.68 | 0.491 | 2.32 | 0.574 | 1.32 | 1.51 | 2.02 |
| N#CC(C#N)=C/C=C/c1c(Cl)cccc1Cl | 3.2 | 5.67 | 4.27 | > 10 | 2.62 | 8.56 | > 10 | 7.22 | 2.96 | 2.87 | 3.52 | 3.49 | 3.28 | 5.64 | 7.46 | 3.47 | – | 3.23 | 3.35 | 7.05 |
| COc1ccc2c(C)c(Oc3c(Cl)c(Cl)c(O)c(C#N)c3C#N)oc2c1 | > 100 | > 100 | > 100 | > 100 | > 100 | > 100 | > 100 | > 100 | > 100 | > 100 | > 100 | > 100 | > 100 | > 100 | > 100 | > 100 | > 100 | > 100 | > 100 | > 100 |
| C/C=C(/C)C(=O)O[C@H]1[C@H]2[C@@H]([C@@H](OC(C)=O)[C@H](C)C(=O)[C@@]34C[C@@H](C)C(=O)[C@]3(/C=C(\C)[C@H]1OC(C)=O)O4)C2(C)C | > 20 | 7.01 | 9.96 | > 20 | 5.99 | 8.43 | 3.35 | – | 5.83 | > 20 | 9.32 | 14.2 | 7.75 | > 20 | 9.94 | 11 | 7.77 | 4.94 | 5.5 | 6.56 |
| O=C(NCCCNCCN1C(=O)c2cccc3cc([N+](=O)[O-])cc(c23)C1=O)c1cc(-c2ccccc2)nc2ccccc12 | 17.3 | 18.9 | 15.2 | 14.1 | 16.8 | 2.5 | 22.2 | 15.7 | 5.07 | 7.55 | 8.17 | 15.1 | 5.97 | 21.6 | 7.66 | 12.1 | 18.6 | 2.89 | 9.04 | 24.2 |
| CC(=O)NC(Cc1ccccc1)NC(=O)O (configuration not stated) | > 100 | > 100 | > 100 | > 100 | > 100 | > 100 | > 100 | > 100 | > 100 | > 100 | > 100 | > 100 | > 100 | > 100 | > 100 | > 100 | > 100 | > 100 | > 100 | > 100 |
| CC(=O)OCC1OC(c2c(OC(C)=O)cc(C)c3c(=O)cc(/C(C(C)=O)=C(\C)O)oc23)C(OC(C)=O)C(OC(C)=O)C1OC(C)=O (configuration not stated) | > 100 | > 100 | > 100 | > 100 | > 100 | > 100 | > 100 | > 100 | > 100 | > 100 | > 100 | > 100 | > 100 | > 100 | > 100 | > 100 | > 100 | > 100 | > 100 | > 100 |
| Cn1c(=O)c2nc3c(=O)n(C)c(=O)n(CC(N)=O)c3nc2n(C)c1=O | > 100 | > 100 | > 100 | > 100 | > 100 | > 100 | > 100 | – | > 100 | > 100 | > 100 | > 100 | > 100 | > 100 | > 100 | > 100 | > 100 | > 100 | > 100 | > 100 |
| N/N=C(\c1nc2ccc([N+](=O)[O-])cc2[nH]c1=O)C(O)c1ccc(Cl)c(Cl)c1 (configuration not stated) | > 100 | > 100 | > 100 | > 100 | > 100 | > 100 | > 100 | > 100 | > 100 | > 100 | > 100 | > 100 | > 100 | > 100 | > 100 | > 100 | > 100 | > 100 | > 100 | > 100 |
